Six compounds from US8877949B2, “Furo[3,2-g]chromene compounds and uses thereof” (Shenyang Pharmaceutical University, priority 2010, dated 2014) can be followed below.

Structures are written as SMILES.

What all share (assay type): cell-based
One experiment relates to MCF-7/ERE. As to the kind of experiment: MCF-7/ERE anti-proliferation assay (ERE-tk-luciferase). The following applies: Homo sapiens, MCF7; n = 2. The protocol:
Stock solutions (usually, 0.1 M) of the test compounds were prepared in DMSO, and then diluted by 10-100 folds in DMSO, so as to achieve the working solutions with a concentration of 1-10 mM. The stock solutions (in DMSO) were stored at 4° C. (0.1 M) or −20° C. (<0.1 M). MCF-7 cells were passaged twice per week using a growth medium (i.e. a D-MEM/F-12 medium). The cells were kept in a 37° C., aerated flask in an incubator filled with 5% CO2/95% humid air. One day before the treatment, a 96-well titration plate was coated with the cells in the medium, 25000 cells/well, and then cultured at 37° C., overnight.
The cells were transfected with 50 μL/well of 1/10 diluted adenovirus 5-ERE-tk-luciferase in the test medium (i.e. a D-MEM/F-12 medium without phenolsulfonphthalein) for 2 h. Then each well was washed once with 150μλ of the test medium. At last, the cells were divided into several replicates and treated at 37° C. for 24 h, wherein 8 wells were treated with 150μλ/well vehicle (≦0.1% v/v DMSO) or the compound diluted by ≧1000 folds with the test medium.
A primary screen of the test compounds was conducted with a single dose of 1 μM, wherein the test compound was alone (an agonist mode) or in combination with 0.1 nM 17β estradiol (EC80: an antagonist mode). Each 96-well plate also contained a vehicle control group (0.1% v/v DMSO) and an agonist control group (0.1 or 1 nM 17β estradiol). In the agonist and/or antagonist mode, a dose-response experiment was conducted for the active compounds which were increased by logarithm of 10^−14˜10^−5 M. Based on these dose-response curves, EC50 and IC50 values were determined respectively. The final titration wells in each treatment groups contained 5 μL of 3×10^−5 M ICC-182780 (10^−6 M final concentration), as an ER antagonist control.
After the treatment, the cells were lysed in 25 μL/well of 1× cell-culture lytic agent (Promega Corporation) for 15 min. Cell lysate (20 μL) was transferred into a 96-well photometer plate. The luciferase activity was measured with 100 μL/well of the substrate for luciferase (Promega Corporation) in MicroLumat LB 96P photometer (EG&G Berthold). Before adding the substrate, a background measurement was performed for each well for 1 s. After adding the substrate, the luciferase activity was measured after 1 s delay and within 10 s. The data obtained from the photometer were analyzed by JMF software (SAS Institute). Using this program, the background reading of the luciferase activity in each well was subtracted, and then the average and standard deviation were calculated for each group of treatment.
The above luciferase data were subjected to a logarithmic transformation, and the weights of the transformed results which were far away from the median was reduced using Huber M-estimator. The transformed and weighted data were analyzed using JMF software, so as to conduct a one-way ANOVA (D test). The results of the compound treatment groups were compared with that of a vehicle control group in the agonist mode, or with that of a positive agonist control group in the antagonist mode (0.1 nM 17β-estradiol). […] In addition, EC50 and/or IC50 values were determined from a nonlinear dose-response curve using JMF software.

Experiment [1] concerns Osteosarcoma Cells U2OS-EGFP-4A12G. As to the kind of experiment: Effect on the proliferation of osteosarcoma cells U2OS-EGFP-4A12G (MTT). The following applies: n = 3. The protocol: Cells in the logarithmic growth phase were digested with trypsin, counted with trypan blue, and prepared into a cellular suspension with a density of 1×10^4 cells/mL. The suspension was seeded in a 96-well plate, 200 μL/well, about 2×10^3 cells/well, and pre-cultured for 24 h. […] A concentration of 0 mg/mL was used as a negative control group. After subsequent cultivatation for 0 h, 12 h, 24 h or 48 h, 20 μL MTT solution (5 mg/mL) was added to each well. The cultivation was terminated after another 4 h incubation. The supernatant in each well was sucked out carefully, and 150 μL of dimethyl sulfoxide (DMSO) was added to each well. The plate was shaken for 10 min, so that formazan was dissolved thoroughly. The absorption value (A value) of each well was measured using an enzyme linked immunosorbent detector, at a selected wavelength of 490 nm. The measurement was repeated for 5 times.

Experiment [2] concerns Ovarian Cancer Cells SKOV3. As to the kind of experiment: Effect on the proliferation of ovarian cancer cells SKOV3 (MTT). The conditions noted are these: Homo sapiens, SK-OV-3, n = 3. The protocol: Cells in the logarithmic growth phase were digested with trypsin, added to a 96-well plate, in a density of 6×10^3 cells/well, and cultured in a 37° C., 5% CO2 incubator. The next day, the plated was transferred to and kept in a 4° C. incubator for 1 h after the adherence of most cells, so as to achieve synchronized growth of the cells. The supernatant was sucked out, and a RPMI 1640 medium containing 10% fetal calf serum (FCS) was added, 200 μL/well. The cells were grouped according to the design of the experiment. The injectable solution of the compound prepared with sterile physiological saline was added to the 96 wells, 200 μL/well, so that the concentrate of the medicament in each well were 1 mg/mL, 2 mg/mL and 5 mg/mL, respectively. A concentration of 0 mg/mL was used as a negative control group. After subsequent cultivation for 24, 48, or 72 h, 20 μL MTT solution (with a concentration of 5 mg/mL) was added to each well, respectively. The plate was shaken gently, returned to the incubator and incubated for another 4 h. Then the supernatant was sucked out completely, and 200 μL of dimethyl sulfoxide was added to each well. The plate was shaken for 5-10 min on a shaker. The absorption (A=580) of each well at a wavelength of 580 nm was measured using a microplate reader. The A=580 value was proportional to the number of live cells.

As for `CN(C)C(=O)COc1ccc(C(=O)c2oc3cc4c(cc3c2-c2ccc(O)cc2)CCCO4)cc1` [Example 64, 2-[4-(dimethylamino-2-oxo-ethoxy)benzoyl]-3-(4-hydroxyphenyl)-6,7-dihydrogen-5H-furo[3,2-g]chromene], in the experiment on MCF-7/ERE, the IC50 is 21.8 µM.
With `CN(C)CCOc1ccc(C(=O)c2oc3cc4c(cc3c2-c2ccc(O)cc2)CCCO4)cc1` [Example 58, 2-[4-(dimethylaminoethoxy)benzoyl]-3-(4-hydroxyphenyl)-6,7-dihydrogen-5H-furo[3,2-g]chromene], in the experiment with MCF-7/ERE, the IC50 was found to be 22.9 µM.
In the case of `CCN(CC)CCOc1ccc(C(=O)c2oc3cc4c(cc3c2-c2ccc(O)cc2)CCCO4)cc1` [Example 56, 2-[4-(diethylaminoethoxy)benzoyl]-3-(4-hydroxyphenyl)-6,7-dihydrogen-5H-furo[3,2-g]chromene], the IC50 in the experiment with MCF-7/ERE was determined as 13.5 µM; in experiment [1] it was 14.9 µM; in experiment [2] it was 17.9 µM.
As for `O=C(c1ccc(OCC(=O)N2CCCCC2)cc1)c1oc2cc3c(cc2c1-c1ccc(O)cc1)CCCO3` [Example 60, 2-[4-(piperidine-2-oxo-ethoxy)benzoyl]-3-(4-hydroxyphenyl)-6,7-dihydrogen-5H-furo[3,2-g]chromene], the IC50 with MCF-7/ERE was determined as 5.6 µM.
The same measure, in the same setting: as for `CCN(CC)C(=O)COc1ccc(C(=O)c2oc3cc4c(cc3c2-c2ccc(O)cc2)CCCO4)cc1` [Example 62, 2-[4-(diethylamino-2-oxo-ethoxy)benzoyl]-3-(4-hydroxyphenyl)-6,7-dihydrogen-5H-furo[3,2-g]chromene], the figure is 42.3 µM; as for `O=C(c1ccc(OCC(=O)N2CCOCC2)cc1)c1oc2cc3c(cc2c1-c1ccc(O)cc1)CCCO3` [2-[4-(morpholine-2-oxo-ethoxy)benzoyl]-3-(4-hydroxyphenyl)-6,7-dihydrogen-5H-furo[3,2-g]chromene], 4.9 µM.
